Laboratory results taken from patent US11739252B2, “Microbecidal composition and a method for mitigating internal microbiological influenced corrosion in petroleum transporting pipelines” (Indian Oil Corporation Limited, priority 2020, dated 2023).

Test system: MIC causing microbes
Assay: Synergistic effect of components: antimicrobial screening against MIC causing microbes and their mediated corrosion
Format: cell-based
Conditions: dosed at 10000 ppm
Protocol: To test the MIC activity, the microbecidal composition was subjected to antimicrobial screening against MIC causing microbes and their mediated corrosion. 10 gram of muck sample from a pipeline having MIC was used as inoculum. The growth of the microbes was followed by visual observation as well as by counting the CFU/ml on respective media. The growth was compared with control i.e., without microbecidal composition. Further, individual components of the microbecidal composition were evaluated to evaluate the synergistic effect of the composition (Table 1). As observed from the Table-1 below, when the individual components of the microbecidal composition was used, no significant MIC reduction was observed.

## CCO [Alcohol]
Base corrosion rate 12 mpy
  Percentage (%) reduction in MIC: 10%
Base corrosion rate without composition 12 mpy, muck sample inoculum
  After dosing of Microbecidal composition (mpy): 10.75 mpy
